# Where two headings read alike, the source gives them in different places.
# Key:
# human DGKζ = biological target: T1, human DGKζ (Homo sapiens, UniProt Q13574); assay: DGKζ LIPGLO assay (extruded liposome substrate), in vitro DGK inhibition; format: biochemical; settings: read-out: DGKz LIPGLO IC50
# T1 construct: TVMV protease cleavage site (C); Hexa-His (C); made in house; host or cells: Sf9 insect cells (baculovirus, Bac-to-Bac)
# Human venous whole blood = assay: Human whole blood IFN-γ assay; format: cell-based; settings: human whole blood, read-out: INFg Whole Blood Normalized Agonist EC50;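 note: blood from healthy donors exposed to compound for 1 h before stimulation with anti-CD3 and anti-CD28 at 1 µg/mL each, IFN-γ quantified in supernatant by AlphaLISA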
# human DGKα = biological target: T2, human DGKα (Homo sapiens, UniProt P23743); assay: DGKα LIPGLO assay (extruded liposome substrate), in vitro DGK inhibition; format: biochemical; settings: read-out: DGKa LIPGLO IC50
# T2 construct: TVMV protease cleavage site (C); Hexa-His (C); made in house; host or cells: Sf9 insect cells (baculovirus, Bac-to-Bac)
# [1] = normalized to 3 μM reference compound with anti-CD3 plus anti-CD28 as 100% activation
# [2] = Homo sapiens, 24 h, anti-CD3 plus anti-CD28, 24 hours, 3 μM reference compound = 100% activation
# [3] = anti-CD3 plus anti-CD28, 24 hours, 3 μM reference compound = 100% activation
# [4] = Homo sapiens, 24 h, normalized to 3 μM reference compound with anti-CD3 plus anti-CD28 as 100% activation
# T2 sequence (P23743 with tags, fused parts or gaps): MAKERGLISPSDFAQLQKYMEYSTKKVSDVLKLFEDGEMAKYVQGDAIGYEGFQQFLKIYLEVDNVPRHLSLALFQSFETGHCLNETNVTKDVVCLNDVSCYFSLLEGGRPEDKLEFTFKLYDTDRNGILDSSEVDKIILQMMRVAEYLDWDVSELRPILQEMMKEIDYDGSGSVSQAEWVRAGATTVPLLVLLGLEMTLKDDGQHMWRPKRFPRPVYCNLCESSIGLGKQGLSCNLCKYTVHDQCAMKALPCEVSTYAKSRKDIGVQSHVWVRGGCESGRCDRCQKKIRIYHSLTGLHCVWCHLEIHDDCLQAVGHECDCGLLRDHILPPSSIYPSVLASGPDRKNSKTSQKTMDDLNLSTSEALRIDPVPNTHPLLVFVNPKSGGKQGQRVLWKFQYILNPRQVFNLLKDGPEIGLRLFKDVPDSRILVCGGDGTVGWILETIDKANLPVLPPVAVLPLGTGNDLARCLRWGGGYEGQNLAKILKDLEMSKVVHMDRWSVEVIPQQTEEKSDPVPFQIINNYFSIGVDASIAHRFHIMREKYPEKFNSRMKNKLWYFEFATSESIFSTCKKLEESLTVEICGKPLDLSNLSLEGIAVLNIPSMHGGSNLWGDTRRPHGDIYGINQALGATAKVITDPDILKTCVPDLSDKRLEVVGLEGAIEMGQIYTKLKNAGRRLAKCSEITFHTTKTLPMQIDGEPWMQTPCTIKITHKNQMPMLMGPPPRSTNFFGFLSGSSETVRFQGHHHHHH
# T1 sequence (Q13574 with tags, fused parts or gaps isoform Q13574-4): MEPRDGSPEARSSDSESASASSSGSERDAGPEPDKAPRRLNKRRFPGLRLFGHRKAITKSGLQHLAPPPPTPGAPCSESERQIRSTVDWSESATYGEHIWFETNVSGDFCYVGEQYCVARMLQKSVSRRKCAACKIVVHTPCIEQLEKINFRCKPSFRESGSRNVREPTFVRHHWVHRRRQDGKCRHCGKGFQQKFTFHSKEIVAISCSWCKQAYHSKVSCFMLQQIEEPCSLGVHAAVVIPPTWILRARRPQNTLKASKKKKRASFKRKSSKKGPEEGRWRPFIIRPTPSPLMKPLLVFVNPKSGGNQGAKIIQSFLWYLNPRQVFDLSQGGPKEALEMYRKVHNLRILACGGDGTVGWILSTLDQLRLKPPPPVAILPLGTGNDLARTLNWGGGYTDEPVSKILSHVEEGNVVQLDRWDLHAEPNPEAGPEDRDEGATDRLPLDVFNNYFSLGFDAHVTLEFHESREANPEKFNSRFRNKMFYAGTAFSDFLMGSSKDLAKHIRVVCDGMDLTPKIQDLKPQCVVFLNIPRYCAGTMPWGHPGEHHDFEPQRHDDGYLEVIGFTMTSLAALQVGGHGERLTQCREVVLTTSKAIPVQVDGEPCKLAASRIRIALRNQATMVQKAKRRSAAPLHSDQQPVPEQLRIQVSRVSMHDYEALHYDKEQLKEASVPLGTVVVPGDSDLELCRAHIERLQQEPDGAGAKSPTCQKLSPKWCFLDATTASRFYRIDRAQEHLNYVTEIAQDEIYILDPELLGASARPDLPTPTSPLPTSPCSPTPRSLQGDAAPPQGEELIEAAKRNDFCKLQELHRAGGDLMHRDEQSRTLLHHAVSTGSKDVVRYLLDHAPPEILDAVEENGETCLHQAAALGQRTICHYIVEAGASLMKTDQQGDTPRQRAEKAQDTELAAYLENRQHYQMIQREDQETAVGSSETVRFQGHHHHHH
IC50 (human DGKζ; liposome (LIPGLO) assay),IC50 (human DGKα; liposome (LIPGLO) assay),IC50 (human DGKζ; DGKζ liposome (LIPGLO) assay),IC50 (human DGKα; DGKα liposome (LIPGLO) assay),SMILES,EC50 (Human venous whole blood; [1]),EC50 (Human venous whole blood; [2]),EC50 (Human venous whole blood; [3]),EC50 (Human venous whole blood; [4])
940 nM,1100 nM,,,C[C@@H]1CN(c2cc(=O)n(C)c3ccc(C#N)nc23)[C@@H](C)CN1C(c1ccc(F)cc1)c1ccns1 (stereo partly drawn) [Example 720],1900 nM,,,
,,38000 nM,19000 nM,"C[C@@H]1CN(c2c(C#N)c(=O)n(C)c3ccc(C#N)nc23)[C@@H](C)CN1C(c1ccc(F)cc1)c1cn(C)cn1 (single isomer, unassigned) [Example 853]",,20000 nM,,
3600 nM,69 nM,,,"C[C@@H]1CN(c2cc(=O)n(C)c3ccc(C#N)nc23)[C@@H](C)CN1C(c1ccc(F)cc1)c1nccs1 (single isomer, unassigned) [Example 711]",,,,1700 nM
,,3000 nM,3100 nM,"C[C@@H]1CN(c2c(C#N)c(=O)n(C)c3ccc(C#N)nc23)CCN1C(c1ccc(F)cc1)c1ncccc1F (single isomer, unassigned) [Example 891]",,2800 nM,,
,,840 nM,1500 nM,C[C@@H]1CN(c2c(C#N)c(=O)n(C)c3ccc(C#N)nc23)CCN1C(c1ccc(F)cc1)c1ccccc1F (stereo partly drawn) [Example 883],,,830 nM,
14000 nM,4900 nM,,,"C[C@@H]1CN(c2c(C#N)c(=O)n(C)c3ccc(C#N)nc23)CCN1C(c1ccc(F)cc1)c1cncnc1 (stereo partly drawn) [Example 318, 8-((3R)-4-((4-fluorophenyl)(pyrimidin-5-yl)methyl)-3-methylpiperazin-1-yl)-5-methyl-6-oxo-5,6-dihydro-1,5-naphthyridine-2,7-dicarbonitrile]",,,,7400 nM
59 nM,740 nM,,,"C[C@@H]1CN(c2cc(=O)n(C)c3ccc(C#N)nc23)[C@@H](C)CN1C(c1ccc(F)cc1)c1cccc(C(F)F)n1 (single isomer, unassigned) [Example 697]",200 nM,,,
,,150 nM,44 nM,"C[C@@H]1CN(c2cc(=O)n(C)c3ccc(C#N)nc23)[C@@H](C)CN1C(c1ccc(F)cc1)c1cc(C(C)(C)C)on1 (single isomer, unassigned) [Example 732]",,,440 nM,
2200 nM,440 nM,,,"C[C@@H]1CN(c2c(C#N)c(=O)n(C)c3ccc(C#N)nc23)CCN1C(c1ccc(F)cc1)c1nccs1 (single isomer, unassigned) [Example 1024]",,,,1200 nM
,,7900 nM,> 250000 nM,"C[C@@H]1CN(c2c(C#N)c(=O)n(C)c3ccc(C#N)nc23)[C@@H](C)CN1C(c1ccc(F)cc1)c1cc(C(C)(C)C)on1 (single isomer, unassigned) [Example 867]",,,20000 nM,

# The remaining lines, values behind:
SMILES,IC50 (human DGKζ; liposome (LIPGLO) assay),IC50 (human DGKα; liposome (LIPGLO) assay),IC50 (human DGKζ; DGKζ liposome (LIPGLO) assay),IC50 (human DGKα; DGKα liposome (LIPGLO) assay),EC50 (Human venous whole blood; [1]),EC50 (Human venous whole blood; [2]),EC50 (Human venous whole blood; [3]),EC50 (Human venous whole blood; [4])
"CC[C@H]1CN(C(C)c2ccc(C(F)(F)F)cc2)[C@H](CC)CN1c1cc(=O)n(C)c2ccc(C#N)nc12 (single isomer, unassigned) [Example 1052]",2000 nM,2500 nM,,,190 nM,,,
"C[C@@H]1CN(c2cc(=O)n(C)c3ccc(C#N)nc23)[C@@H](C)CN1C(c1ccc(F)cc1)c1cnn(C2CC2)c1 (single isomer, unassigned) [Example 726]",,,59 nM,1900 nM,,,800 nM,
CC[C@@H]1CN(c2cc(=O)n(C)c3ccc(C#N)nc23)[C@@H](CC)CN1Cc1cc(F)c(F)c(F)c1 [Example 1354],840 nM,1600 nM,,,,,,1200 nM
COc1ccc(C(c2ccc(F)cc2)N2C[C@H](C)N(c3cc(=O)n(C)c4ccc(C#N)nc34)C[C@H]2C)cc1 (stereo partly drawn) [Example 659],310 nM,1400 nM,,,17000 nM,,,
"C[C@@H]1CN(c2cc(=O)n(C)c3ccc(C#N)nc23)[C@@H](C)CN1C(c1ccc(F)cc1)c1cccc(N2CCOCC2)c1 (single isomer, unassigned) [Example 673]",2300 nM,4700 nM,,,1300 nM,,,
"CC[C@H]1CN(C(C)c2ccc(OC)cc2)[C@H](CC)CN1c1cc(=O)n(C)c2ccc(C#N)nc12 (single isomer, unassigned) [Example 1367]",2900 nM,170 nM,,,1900 nM,,,
"C[C@@H]1CN(c2cc(=O)n(C)c3ccc(C#N)nc23)[C@@H](C)CN1C(c1ccc(F)cc1)c1nc(C2CN(C)C2)no1 (single isomer, unassigned) [Example 1299]",26000 nM,89000 nM,,,15000 nM,,,
"Cc1ccc(C(c2cc(C)ccn2)N2C[C@H](C)N(c3cc(=O)n(C)c4ccc(C#N)nc34)C[C@H]2C)cc1 (single isomer, unassigned) [Example 461]",3600 nM,1400 nM,,,2100 nM,,,
CC[C@@H]1CN(c2cc(=O)n(C)c3ccc(C#N)nc23)[C@@H](C)CN1Cc1ccc2c(c1)OC(F)(F)O2 [Example 1082],1500 nM,5200 nM,,,,,,580 nM
"CC(c1ccc(F)cc1)N1C[C@@H](C)N(c2cc(=O)n(C)c3ccc(C#N)nc23)C[C@@H]1CO (single isomer, unassigned) [Example 1179]",850 nM,> 250000 nM,,,20000 nM,,,
C[C@@H]1CN(c2c(C#N)c(=O)n(C)c3ccc(C#N)nc23)CCN1Cc1ccc(F)cc1Cl [Example 993],,,3900 nM,1300 nM,,3800 nM,,
C[C@@H]1CN(c2cc(=O)n(C)c3ccc(C#N)nc23)[C@@H](C)CN1Cc1coc(-c2cccs2)n1 [Example 1434],960 nM,2100 nM,,,,,,21000 nM
"COC[C@@H]1CN(c2cc(=O)n(C)c3ccc(C#N)nc23)[C@@H](C)CN1C(c1ccc(F)cc1)c1nc(C2CC2)no1 (single isomer, unassigned) [Example 1394]",37 nM,53 nM,,,,,,450 nM
CC[C@@H]1CN(c2cc(=O)n(C)c3ccc(C#N)nc23)[C@@H](C)CN1Cc1ccc(F)cc1Cl [Example 1078],110 nM,2700 nM,,,,,,970 nM
COC(=O)c1ccc(C(C)N2CCN(c3c(C#N)c(=O)n(C)c4ccc(C#N)nc34)C[C@H]2C)cc1 (stereo partly drawn) [Example 981],,,28000 nM,2100 nM,,13000 nM,,
"CC(c1ccc(C2(C#N)CC2)cc1F)N1C[C@H](C)N(c2cc(=O)n(C)c3ccc(C#N)nc23)C[C@H]1C (single isomer, unassigned) [Example 1251]",250 nM,1600 nM,,,,,,3900 nM
CC[C@@H]1CN(c2cc(=O)n(C)c3ccc(C#N)nc23)[C@@H](C)CN1C(c1ccc(F)cc1)c1nc(C2CC2)no1 (stereo partly drawn) [Example 1117],17 nM,15 nM,,,,,,150 nM
"CC[C@H]1CN(C(C)c2ccc(OC(F)(F)F)cc2)[C@H](CC)CN1c1cc(=O)n(C)c2ccc(C#N)nc12 (single isomer, unassigned) [Example 1054]",590 nM,470 nM,,,2700 nM,,,
Cc1cccc(C(C)N2CCN(c3c(C#N)c(=O)n(C)c4ccc(C#N)nc34)C[C@H]2C)n1 (stereo partly drawn) [Example 967],,,51000 nM,2800 nM,,,18000 nM,
"CC(c1ccc(OC(F)(F)F)cc1)N1C[C@H](C)N(c2cc(=O)n(C)c3ccc(C#N)nc23)C[C@H]1CC#N (single isomer, unassigned) [Example 1412]",1700 nM,290 nM,,,,,,1600 nM
CC(C)Oc1ccc(C(c2cccc(F)c2)N2C[C@H](C)N(c3cc(=O)n(C)c4ccc(C#N)nc34)C[C@H]2C)nc1 (stereo partly drawn) [Example 690],390 nM,1500 nM,,,,,,3500 nM

# Source: patent US10669272B2, “Substituted naphthyridinone compounds useful as T cell activators” (BRISTOL-MYERS SQUIBB COMPANY, priority 2018, dated 2020)
